Source: patent US20220175701A1, “TREATMENT OF MAJOR DEPRESSIVE DISORDER AND SUICIDAL IDEATIONS THROUGH STIMULATION OF HIPPOCAMPAL NEUROGENESIS UTILIZING PLANT-BASED APPROACHES” (THERAPEUTIC SOLUTIONS INTERNATIONAL, INC., priority 2020, published 2022)
Like-named read-outs stand apart in the source and are kept apart here.

How the values were obtained:
[1] = tested on: mice with experimental colitis; conditions: cited from earlier work
[2] = tested on: macrophage foam cells; conditions: cited from earlier work
[3] = tested on: rats subjected to myocardial ischemia and reperfusion; conditions: EGCG 10 mg/kg intravenously then 10 mg/kg/h infusion; cited from earlier work
[4] = tested on: lipopolysaccharide-activated macrophages; conditions: cited from earlier work
[5] = tested on: BALB/c mice exposed to random stress; experiment: Endogenous neurogenesis in stressed mice, BRDU incorporation assessed by histology; format: in vivo; conditions: stressed BALB/c mice treated daily; FIG. 1
Procedure: FIG. 1 is a bar graph showing the results of stressed mice that were treated with Fluoxetine or QuadraMune™ daily. Assessment of endogenous neurogenesis was performed by administering BRDU and assessment of incorporation by histology.
BALB/c mice where exposed to random stress 4 times a day by spinning by the tail for 15 seconds. Controls where not stressed. Stressed mice where treated with Prozac or QuadraMune™ daily. Assessment of endogenous neurogenesis was performed by administering BRDU and assessment of incorporation by histology.

[6] = cited from earlier work
[7] = tested on: LPS-challenged macrophages; conditions: pre-incubated 6 h with SFN 0 to 50 μM, then LPS 24 h; cited from earlier work
[8] = tested on: primary peritoneal macrophages; conditions: cited from earlier work
[9] = tested on: BALB/c mice with LPS-induced ARDS; conditions: cited from earlier work
[10] = tested on: mice challenged with endotoxin (LPS 0111:B4) or live Escherichia coli; conditions: cited from earlier work; for concentrations of IL-la: controls 1187.0±278.64
[11] = tested on: lipopolysaccharide-induced inflammatory reactions; conditions: cited from earlier work
[12] = tested on: human umbilical vein VECs (HUVECs); conditions: cited from earlier work
[13] = tested on: apoE(−/−) mice; conditions: PT injection; cited from earlier work
[14] = tested on: cancer patients; experiment: Pterostilbene (nanostilbene) in cancer patients, NK cell activity and interferon gamma; format: in vivo, human; conditions: administered in the form of nanostilbene
Excerpt: Additionally, pterostilbene has shown to inhibit inflammatory cytokines associated with ARDS.

[15] = sulforaphane 50 mg/kg, LPS 5 mg/kg

## O=C(O[C@@H]1Cc2c(O)cc(O)cc2O[C@@H]1c1cc(O)c(O)c(O)c1)c1cc(O)c(O)c(O)c1 [EGCG, Epigallocatechin Gallate]
[1]; 50 and 100 mg/kg/day EGCG groups vs MD group
  disease activity index (DAI) and spleen index (SI): decreased
[1]; mouse, in vivo
  HIF-1α and STATS protein expression in the colon: decreasing
  plasma levels of IL-10 and TGF-β1: increasing
  release of IL-6 and IL-17: reduce
[2]
  TNF-α-induced nuclear factor-κB (NF-κB) activity: inhibition
[2]; pretreatment with EGCG
  TNF-α-induced downregulation of ABCA1 and decrease in cholesterol efflux to apoA 1: attenuated
[3]
  myocardial damage and myeloperoxidase activity: reduced
  plasma IL-6 and creatine phosphokinase levels: decreased
[4]; EGCG 5 and 10 microM for 6-24 hr, vs macrophages without EGCG
  iNOS activity in soluble extracts: significantly lower
[4]; cells cotreated with EGCG and LPS
  NO production: Inhibition
[4]; electrophoretic mobility shift assay
  activation of nuclear factor-kappaB: blocked

## CNCCC(Oc1ccc(C(F)(F)F)cc1)c1ccccc1 (stereo not drawn) [Prozac, Fluoxetine]
[5]
  endogenous neurogenesis (BRDU incorporation by histology): Augmented neurogenesis

## Oc1ccc(C=Cc2cc(O)cc(O)c2)cc1 [resveratrol, reference compound]
[6]; animal studies
  bioavailability: 20%

## C[S+]([O-])CCCCN=C=S (stereo not drawn) [sulforaphane, 1-isothiocyanato-4-(methylsulfinyl)-butane]
[7]
  expression of NO and cytokines: able to prevent
[8]; LPS-stimulated Nrf2 (+/+) primary peritoneal macrophages
  HO-1 expression: significantly augmented
[8]; Nrf2 (−/−) primary peritoneal macrophages
  anti-inflammatory effect: attenuated
[8]; pretreatment, Nrf2 (+/+) primary peritoneal macrophages
  LPS-stimulated mRNA expression, protein expression and production of TNF-alpha, IL-1beta, COX-2 and iNOS: potently inhibited
[9]; ELISA, sulforaphane 50 mg/kg
  serum levels of interleukin-6 (IL-6) and tumor necrosis factor-α (TNF-α): significantly decreased
[9]; pre-treatment
  Nrf2/antioxidant response element (ARE) pathway: activated
[9]; [15]
  lactate dehydrogenase (LDH) activity: significantly decreased
  wet-to-dry ratio of the lungs: significantly decreased
[9]; sulforaphane 50 mg/kg
  nuclear factor-κB protein expression: significantly decreased
  prostaglandin E2 (PGE2) production, COX-2 and MMP-9 protein expression, iNOS activity: significantly inhibited

## CC1=CC(=O)C(C(C)C)=CC1=O [thymoquinone]
[10]; 0.75 mg/kg thymoquinone dose
  concentrations of IL-la: 310.8 ± 70.93 pg/mL
[10]; 0.75 mg/kg thymoquinone, controls 5505.2±333.96
  IL-10 levels: 2885.0 ± 553.98 pg/mL
[10]; 1 mg/kg group
  concentrations of IL-la: 428.3 ± 71.32 pg/mL
[10]; P values=0.1817 and 0.0851
  levels of TNF-α and IL-2: relatively lower levels
[10]; mouse, in vivo
  renal and hepatic biomarker profiles: improved
[10]; thymoquinone before endotoxin or E. coli sepsis in mice
  reduced mortality: 80-90%
[11]
  concentration of nitric oxide: reduced significantly

## trans-3,5-dimethoxy-4-hydroxystilbene [pterostilbene]
[12]; HUVECs, oxLDL 200 μg/ml
  oxLDL-induced cell shrinkage, chromatin condensation, nuclear fragmentation and cell apoptosis: protected against such injuries
[12]; in vitro and in vivo
  expression of lectin-like oxLDL receptor-1 (LOX-1): inhibited
[6]; rat, in vivo
  bioavailability: 80%
[13]
  number of TUNEL-positive cells in the endothelium of atherosclerotic plaque: strongly decreased
[14]
  NK cell activity: increased
  interferon gamma production: increased
